Key:
[1] = molecular target: T1, EGFR tyrosine kinase (Homo sapiens, UniProt P00533); assay: Test (a) protein tyrosine kinase phosphorylation assay, EGFR; type: biochemical; details: ATP at Km concentration; read-out: IC50 Test (a): Inhibition of EGFR tyrosine kinase protein phosphorylation
T1 construct: Recombinant intracellular fragments of EGFR, erbB2 and erbB4; made in house; host or cells: baculovirus/Sf21 insect cells (cleared lysate used)
Method: (§1) This test measures the ability of a test compound to inhibit the phosphorylation of a tyrosine containing polypeptide substrate by EGFR, erbB2 and erbB4 tyrosine kinase enzyme.
(§2) Recombinant intracellular fragments of EGFR, erbB2 and erbB4 (accession numbers X00588, X03363 and L07868 respectively) were cloned and expressed in the baculovirus/Sf21 system. […]
(§3) Constitutive kinase activity of these recombinant proteins was determined by their ability to phosphorylate a synthetic peptide (made up of a random co-polymer of Glutamic Acid, Alanine and Tyrosine in the ratio of 6:3:1). […]
(§4) The immobilised phospho-peptide product of the reaction was detected by immunological methods. […] After further washing, HRP activity in each well of the plate was measured colorimetrically using 22′-Azino-di-[3-ethylbenzthiazoline sulfonate (6)] diammonium salt crystals (ABTS™ from Roche) as a substrate.
(§5) Quantification of colour development and thus enzyme activity was achieved by the measurement of absorbance at 405 nm on a Molecular Devices ThermoMax microplate reader. Kinase inhibition for a given compound was expressed as an IC50 value. […] The range of phosphorylation was calculated from the positive (vehicle plus ATP) and negative (vehicle minus ATP) control values.

[2] = molecular target: T2, erbB2 tyrosine kinase (Homo sapiens, UniProt P04626); assay: Test (a) protein tyrosine kinase phosphorylation assay, erbB2; type: biochemical; details: ATP at Km concentration; read-out: IC50 Test (a): Inhibition of erbB2 tyrosine kinase protein phosphorylation
T2 construct: Recombinant intracellular fragments of EGFR, erbB2 and erbB4; made in house; host or cells: baculovirus/Sf21 insect cells (cleared lysate used)
Method: as §1, §2, §3, §4, §5

[3] = molecular target: T3, erbB2 in a MCF7 derived cell line (Clone 24 cells) (Homo sapiens, UniProt P04626); assay: Test (c) Clone 24 phospho-erbB2 cell assay; type: cell-based; details: MCF7 derived Clone 24 cells, 4 hours with compound; read-out: IC50 Test (c): Inhibition of erbB2 tyrosine kinase protein phosphorylation
T3 construct: to give a cell line that overexpresses full length wild type erbB2 protein; expressed in transfected cells; host or cells: MCF7 (breast carcinoma) derived Clone 24 cells
Method: This immunofluorescence end point assay measures the ability of a test compound to inhibit the phosphorylation of erbB2 in a MCF7 (breast carcinoma) derived cell line which was generated by transfecting MCF7 cells with the full length erbB2 gene using standard methods to give a cell line that overexpresses full length wild type erbB2 protein (hereinafter ‘Clone 24’ cells).
Clone 24 cells were cultured in Growth Medium (phenol red free Dulbecco's modified Eagle's medium (DMEM) containing 10% foetal bovine serum, 2 mM glutamine and 1.2 mg/ml G418) in a 7.5% CO2 air incubator at 37° C. […] Cell density was measured using a haemocytometer and viability was calculated using Trypan Blue solution before being further diluted in Growth Medium and seeded at a density of 1×10^4 cells per well (in 100 μl) into clear bottomed 96 well plates (Packard, No. 6005182). […]
Immunostaining was performed at room temperature. […] Plates were analysed within six hours of completing the immunostaining.
The Fluorescence signal is each well was measured using an Acumen Explorer Instrument (Acumen Bioscience Ltd.), a plate reader that can be used to rapidly quantitate features of images generated by laser-scanning. […]

T2 sequence (P04626 676-1255 limits assumed): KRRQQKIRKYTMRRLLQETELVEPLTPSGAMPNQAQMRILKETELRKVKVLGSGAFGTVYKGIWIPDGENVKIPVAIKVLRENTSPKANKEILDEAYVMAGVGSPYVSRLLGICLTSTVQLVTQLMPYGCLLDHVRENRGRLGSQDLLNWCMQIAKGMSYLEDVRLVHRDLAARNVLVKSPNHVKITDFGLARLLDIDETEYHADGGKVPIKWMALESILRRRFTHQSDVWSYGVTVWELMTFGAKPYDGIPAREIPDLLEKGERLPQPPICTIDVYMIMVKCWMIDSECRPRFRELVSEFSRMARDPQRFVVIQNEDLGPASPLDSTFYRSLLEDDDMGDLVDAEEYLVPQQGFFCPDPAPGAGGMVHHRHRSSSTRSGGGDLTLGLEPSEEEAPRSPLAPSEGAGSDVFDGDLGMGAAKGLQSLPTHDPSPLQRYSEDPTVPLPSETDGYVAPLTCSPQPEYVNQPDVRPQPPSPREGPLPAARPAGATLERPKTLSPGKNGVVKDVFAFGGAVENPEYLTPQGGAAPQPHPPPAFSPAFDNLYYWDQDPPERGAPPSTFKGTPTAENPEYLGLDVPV
T3 sequence (P04626 23-1255): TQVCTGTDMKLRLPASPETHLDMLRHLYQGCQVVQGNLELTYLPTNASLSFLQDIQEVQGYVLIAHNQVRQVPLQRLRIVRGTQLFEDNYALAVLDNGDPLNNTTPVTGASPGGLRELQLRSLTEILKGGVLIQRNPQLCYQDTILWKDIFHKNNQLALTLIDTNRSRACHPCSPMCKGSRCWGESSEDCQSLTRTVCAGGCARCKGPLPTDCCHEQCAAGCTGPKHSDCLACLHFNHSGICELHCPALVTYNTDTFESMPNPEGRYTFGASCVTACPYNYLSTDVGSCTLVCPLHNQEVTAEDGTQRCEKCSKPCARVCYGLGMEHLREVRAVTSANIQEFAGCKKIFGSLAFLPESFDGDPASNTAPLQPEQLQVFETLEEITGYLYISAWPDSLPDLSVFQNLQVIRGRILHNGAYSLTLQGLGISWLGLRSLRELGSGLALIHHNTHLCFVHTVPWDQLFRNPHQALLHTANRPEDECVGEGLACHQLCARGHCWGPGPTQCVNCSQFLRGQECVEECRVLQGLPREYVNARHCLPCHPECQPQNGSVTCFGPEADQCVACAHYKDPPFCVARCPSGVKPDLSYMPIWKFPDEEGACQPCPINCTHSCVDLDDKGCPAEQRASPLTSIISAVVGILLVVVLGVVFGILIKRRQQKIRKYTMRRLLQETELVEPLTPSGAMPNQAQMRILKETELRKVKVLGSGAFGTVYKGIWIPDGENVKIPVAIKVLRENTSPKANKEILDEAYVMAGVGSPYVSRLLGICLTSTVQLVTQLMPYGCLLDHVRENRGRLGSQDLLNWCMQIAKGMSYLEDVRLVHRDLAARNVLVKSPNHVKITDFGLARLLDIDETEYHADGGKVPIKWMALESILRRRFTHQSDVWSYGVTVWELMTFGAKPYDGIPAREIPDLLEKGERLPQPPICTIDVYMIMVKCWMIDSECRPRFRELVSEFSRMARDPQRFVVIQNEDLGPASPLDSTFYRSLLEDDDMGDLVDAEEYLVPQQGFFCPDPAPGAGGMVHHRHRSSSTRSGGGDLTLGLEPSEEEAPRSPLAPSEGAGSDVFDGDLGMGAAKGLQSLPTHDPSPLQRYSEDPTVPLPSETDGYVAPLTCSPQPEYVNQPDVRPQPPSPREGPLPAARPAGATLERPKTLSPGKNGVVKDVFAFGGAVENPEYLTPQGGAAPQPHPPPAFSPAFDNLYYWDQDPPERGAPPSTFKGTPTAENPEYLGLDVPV
T1 sequence (P00533 669-1210 limits assumed): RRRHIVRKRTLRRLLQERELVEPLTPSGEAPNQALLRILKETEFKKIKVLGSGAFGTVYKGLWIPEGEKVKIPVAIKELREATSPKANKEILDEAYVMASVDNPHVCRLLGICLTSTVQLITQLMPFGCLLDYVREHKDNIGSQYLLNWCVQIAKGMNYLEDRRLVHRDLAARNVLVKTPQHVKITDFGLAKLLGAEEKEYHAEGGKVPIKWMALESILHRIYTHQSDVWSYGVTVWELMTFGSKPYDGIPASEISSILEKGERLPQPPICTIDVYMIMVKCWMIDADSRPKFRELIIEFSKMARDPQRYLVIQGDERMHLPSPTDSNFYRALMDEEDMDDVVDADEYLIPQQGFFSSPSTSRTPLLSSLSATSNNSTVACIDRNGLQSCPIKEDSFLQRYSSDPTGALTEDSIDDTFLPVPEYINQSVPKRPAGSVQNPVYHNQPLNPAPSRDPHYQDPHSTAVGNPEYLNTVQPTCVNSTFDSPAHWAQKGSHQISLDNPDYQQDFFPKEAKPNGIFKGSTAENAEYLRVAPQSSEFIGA

Row | IC50 [1] | IC50 [2] | IC50 [3] | Structure (SMILES)
1 | 180 nM | 8 nM | 420 nM | CN(CCOc1cccc2ncnc(Nc3ccc4c(cnn4Cc4ccccn4)c3)c12)C(=O)CO [Example 1, 2-Hydroxy-N-methyl-N-{2-[(4-{[1-(pyridin-2-ylmethyl)-1H-indazol-5-yl]amino}quinazolin-5-yl)oxy]ethyl}acetamide]
2 | 160 nM | 6 nM | 590 nM | CN(CCOc1cccc2ncnc(Nc3ccc4c(cnn4Cc4cscn4)c3)c12)C(=O)CO [Example 2, 2-Hydroxy-N-methyl-N-{2-[(4-{[1-(1,3-thiazol-4-ylmethyl)-1H-indazol-5-yl]amino}quinazolin-5-yl)oxy]ethyl}acetamide]

Reference: US20090221616A1, “QUINAZOLINE DERIVATIVES AS EGF AND/OR ERBB2 TYROSINE KINASE INHIBITORS” (priority 2005, published 2009)
